Results on one compound are retold here after US4438044A, “Di-L-cysteine L-malate and process for the production thereof” (priority 1980, dated 1984).

≈ marks a conversion by molar mass, not a printed value.

The nature of series [1]: Solubility in water. It is filed as physicochemical. The following applies: 10° C.
The format of series [2] is physicochemical. As to the method:
The storage stability of the above crystalline product and L-cysteine hydrochloride anhydride is measured by keeping them at 40° C. The results are shown in the accompanying FIG. 3.

For orientation: solubility means the concentration that dissolves in the medium under given conditions. High values mean much dissolved substance, low ones little dissolved substance. In series [1], `N[C@@H](CS)C(=O)O` [di-L-cysteine L-malate] displayed a solubility of 222 mg/mL (≈ 1830 mM). In series [2], the “stability in the crystalline form” value is recorded as “extremely stable” and the storage stability result was “excellent stability”.
